Experimental findings from US20250282784A1, “CYTOCHROME BD OXIDASE INHIBITORS AND USES THEREOF” (UNIVERSITY OF NOTRE DAME DU LAC, priority 2022, published 2025) are described below.

The subject of assay [1] is M. abscessus ATCC 19977T wild-type (WT). The experiment in a line: ATP levels in M. abscessus wild-type, 2-fold dose-response. The conditions noted are these: Mycobacteroides abscessus, read-out: ATP IC50 WT. It counts as cell-based, Mycobacterium abscessus. Here is the method:
(§1) The compounds described and provided herein were evaluated for their potential to inhibit Cytochrome BD oxidase in Mycobacterium abscessus. M. abscessus ATCC 19977T wild-type (WT) and deficient for the expression of the cyt-bcc:aa3 (ΔqcrCAB) were treated with a 2-fold dose-response (starting from 40 μM) of the drugs. ATP levels were measured after 6 to 15 hours of incubation using a commercial kit.
(§2) M. abscessus ATCC 19977T wild-type (WT) and deficient for the expression of the cyt-bcc:aa3 (ΔqcrCAB) were treated with a 2-fold dose-response (starting from 40 μM) of the drugs. ATP levels were measured after 6 to 15 hours of incubation using a commercial kit.

In assay [2] the test system is M. abscessus ATCC 19977T deficient for the expression of the cyt-bcc:aa3 (ΔqcrCAB). The assay can be described thus: ATP levels in M. abscessus deficient for cyt-bcc:aa3 (ΔqcrCAB), 2-fold dose-response. It counts as cell-based, Mycobacterium abscessus. Particulars: Mycobacteroides abscessus, read-out: ATP IC50 ΔgcrCAB. Here is the method: as §1, §2
The test system of another assay is M. abscessus. The experiment in a line: Killing of M. abscessus by clofazimine with or without Compound 12 (FIG. 1).

Broadly, the IC50 is the concentration that gives 50% inhibition. As to `Cc1cc2nc(NCCc3ccc(C(F)(F)F)cc3)c3ccccc3n2n1` [Compound 1, 2-methyl-N-(4-(trifluoromethyl)phenethyl) pyrazolo[1,5-a]quinazolin-5-amine], the IC50 is over 40 µM in assay [1] and 12.1 µM in assay [2].

Regarding `Cc1cc2nc(NC3CC(C)(C)CC(C)(C)C3)c3ccccc3n2n1` [Compound 2, 2-methyl-N-(3,3,5,5-tetramethylcyclohexyl) pyrazolo[1,5-a] quinazolin-5-amine], the IC50 in assay [1] and in assay [2] was over 40 µM in each case.

On to `Cc1cc2nc(NC3CCC(F)(F)CC3)c3ccccc3n2n1` [Compound 3, N-(4,4-difluorocyclohexyl)-2-methylpyrazolo[1,5-a] quinazolin-5-amine], for which the IC50 in assay [1] is over 40 µM; in assay [2], 20 µM.

Consider `Cc1cc2nc(NC34CC5CC(CC(C5)C3)C4)c3ccccc3n2n1` [Compound 4, N-((3s,5s,7s)-adamantan-1-yl)-2-methylpyrazolo[1,5-a] quinazolin-5-amine], for which the IC50 in assay [1] was over 40 µM; in assay [2] it was 9.73 µM.

For the molecule `Cc1cc2nc(NC3CCCCC3)c3ccccc3n2n1` [Compound 5, N-cyclohexyl-2-methylpyrazolo[1,5-a] quinazolin-5-amine], the values for the IC50 in assay [1] and in assay [2] were over 40 µM and 6.89 µM, respectively.

As for `Cc1cc2nc(NCc3ccc(N4CCN(c5ccc(F)cc5)CC4)cc3)c3ccccc3n2n1` [Compound 6, N-(4-(4-(4-fluorophenyl)piperazin-1-yl)benzyl)-2-methylpyrazolo[1,5-a] quinazolin-5-amine], the IC50 in assay [1] and in assay [2] was over 40 µM throughout.

For `Cc1cc2nc(Cl)c3ccccc3n2n1` [Compound 7, S-chloro-2-methylpyrazolo[1,5-a] quinazoline], the IC50 in assay [1] and in assay [2] was over 40 µM throughout.

Regarding `Cc1cc2nc(NC3CCCC3)c3ccccc3n2n1` [Compound 8, N-cyclopentyl-2-methylpyrazolo[1,5-a] quinazolin-5-amine], the IC50 in assay [1] is over 40 µM; in assay [2] it was 15.3 µM.

Consider `Cc1cc2nc(NC3CCCCCCC3)c3ccccc3n2n1` [Compound 9, N-cyclooctyl-2-methylpyrazolo[1,5-a] quinazolin-5-amine], for which the results for the concentration for half-maximal inhibition (IC50) in assay [1] and in assay [2] were over 40 µM and 25.9 µM, respectively.

Take `Cc1cc2nc(NC3CCCCCC3)c3ccccc3n2n1` [Compound 12, N-cycloheptyl-2-methylpyrazolo[1,5-a] quinazolin-5-amine]: the values for the concentration for half-maximal inhibition (IC50) in assay [1] and in assay [2] were over 40 µM and 17.4 µM, respectively. For the same molecule, the “Synergy with clofazimine to kill M. abscessus” value with M. abscessus (combination of Compound 12 with clofazimine, FIG. 1) is “synergizes with clofazimine to kill M. abscessus”.

With `Cc1cc2nc(Nc3ccc(Oc4ccc(C(F)(F)F)cc4)cc3)c3ccccc3n2n1` [Compound 14, 2-methyl-N-(4-(4-(trifluoromethyl)phenoxy)phenyl)pyrazolo[1,5-a] quinazolin-5-amine], the half-inhibitory concentration (IC50) in assay [1] and in assay [2] was over 40 µM throughout.

As for `Cc1cc2nc(N[C@H]3CCC[C@@H](c4ccc(C(F)(F)F)cc4)C3)c3ccccc3n2n1` [Compound 15A, 2-methyl-N-((1S,3R)-3-(4-(trifluoromethyl)phenyl)cyclohexyl)pyrazolo[1,5-a] quinazolin-5-amine], the figures for the IC50 in assay [1] and in assay [2] were over 40 µM and 6.6 µM, respectively.

As to `FC(F)(F)c1ccc([C@@H]2CCC[C@H](Nc3nc4ccnn4c4ccccc34)C2)cc1` [Compound 16A, N-((1S,3R)-3-(4-(trifluoromethyl)phenyl)cyclohexyl)pyrazolo[1,5-a] quinazolin-5-amine], the IC50 was over 40 µM in assay [1] and 32.8 µM in assay [2].

For the molecule `Cc1cc2nc(NC3CC4(CCC4)C3)c3ccccc3n2n1` [Compound 17, 2-methyl-N-(spiro[3.3]heptan-2-yl)pyrazolo[1,5-a] quinazolin-5-amine], the IC50 in assay [1] was over 40 µM; in assay [2], 3.2 µM.

As to `Cc1cc2nc(NC3CCC3)c3ccccc3n2n1` [Compound 18, N-cyclobutyl-2-methylpyrazolo[1,5-a] quinazolin-5-amine], the results for the half-inhibitory concentration (IC50) in assay [1] and in assay [2] were over 40 µM and 9.7 µM, respectively.

Take `Cc1cc2nc(N[C@@H]3C[C@H]3c3ccc(F)c(F)c3)c3ccccc3n2n1` [Compound 19A, N-((1R,2S)-2-(3,4-difluorophenyl)cyclopropyl)-2-methylpyrazolo[1,5-a] quinazolin-5-amine]: the figures for the IC50 in assay [1] and in assay [2] were over 40 µM and 18.7 µM, respectively.

Take `Cc1cc2nc(NCC3CCCCC3)c3ccccc3n2n1` [Compound 21, N-(cyclohexylmethyl)-2-methylpyrazolo[1,5-a] quinazolin-5-amine]: the IC50 was over 40 µM in assay [1] and 12.1 µM in assay [2].

Consider `Cc1cc2nc(NCC3CC3)c3ccccc3n2n1` [Compound 22, N-(cyclopropylmethyl)-2-methylpyrazolo[1,5-a] quinazolin-5-amine], for which the IC50 is over 40 µM in assay [1] and 19.6 µM in assay [2].

Take `Cc1cc2nc(NC3CCC(C(F)(F)F)CC3)c3ccccc3n2n1` (centres unmarked) [Compound 23, 2-methyl-N-(4-(trifluoromethyl)cyclohexyl) pyrazolo[1,5-a] quinazolin-5-amine]: the IC50 in assay [1] was over 40 µM; in assay [2], 9 µM.

As for `Cc1cc2nc(NC3CCC(C)CC3)c3ccccc3n2n1` (centres unmarked) [Compound 24, 2-methyl-N-(4-methylcyclohexyl)pyrazolo [1,5-a]quinazolin-5-amine], the IC50 in assay [1] is over 40 µM; in assay [2], 9.2 µM.

As to `Cc1cc2nc(NC3CCC(C(C)C)CC3)c3ccccc3n2n1` (centres unmarked) [Compound 25], the IC50 was over 40 µM in assay [1] and 2.6 µM in assay [2].

Consider `Cc1cc2nc(NC3CCC(C(C)(C)C)CC3)c3ccccc3n2n1` (centres unmarked) [Compound 26, N-(4-(tert-butyl)cyclohexyl)-2-methylpyrazolo[1,5-a] quinazolin-5-amine], for which the IC50 in assay [1] is over 40 µM; in assay [2], 4.4 µM.

Regarding `CC(C)/N=c1\cc2n(-c3ccc(Cl)cc3)c3ccccc3nc-2cc1Nc1ccc(Cl)cc1` [clofazimine, reference compound], the “Type of activity of clofazimine against M. abscessus, tested alone” value in the assay on M. abscessus (clofazimine alone) is recorded as “bacteriostatic”. In addition, the “Type of activity of clofazimine against M. abscessus in the presence of Compound 12” value in the assay on M. abscessus (in the presence of Compound 12) is recorded as “bactericidal”.
